Our source for the glass transition temperature values is the PolyMetriX glass transition set.

The structures appear in SMILES notation.

In the case of `*/C(CCCCCC)=C(/*)c1ccccc1` (repeat unit), the glass transition temperature came out at 200.00 °C.

Compound `*/C=C/CCCCCCCCCC(CCCCCCCCC*)COCCOCCOCCOCCOCCCCCC` (repeat unit) gave a glass transition temperature of -76.00 °C.

Regarding `*/C=C/CCCCCCCCCC(Cl)CCCCCCCCC*` (repeat unit), the glass transition temperature was -37.00 °C.

`*/C=C/c1ccc(OC(=O)CCCCCCCCC(=O)Oc2ccc(-c3nnc(*)s3)cc2)cc1` (repeat unit) displayed a glass transition temperature of 30.00 °C. Consider `*C(=O)Nc1ccc(C(c2ccc(NC(=O)c3ccc(N4C(=O)c5ccc(*)cc5C4=O)cc3C)cc2)(C(F)(F)F)C(F)(F)F)cc1` (repeat unit), for which the glass transition temperature came out at 355.00 °C. The compound `*C/C=C/COC(=O)CCCCCCCCC(=O)O*` (repeat unit) showed a glass transition temperature of -41.00 °C.

Turning to `*CC#CCOC(=O)CCCCCCCCC(=O)O*` (repeat unit), the glass transition temperature was -26.50 °C. Next, `*CC(O)COC(=O)CCCCCCCCC(=O)OCC(O)COc1ccc(C(=O)Oc2ccc(O*)cc2)cc1` (repeat unit): 36.00 °C. The same measure for `*CC1CCC(CNC(=O)CCCCCCCCCCC(=O)N*)CC1` (repeat unit): 85.00 °C; for `*CCCCC(=O)Oc1ccc(-c2ccc(OC(=O)c3ccc4c(c3)C(=O)N(*)C4=O)cc2)cc1` (repeat unit): 123.00 °C.

In turn, `*CCCCC(=O)Oc1ccc(OC(=O)c2ccc3c(c2)C(=O)N(*)C3=O)cc1` (repeat unit) showed a glass transition temperature of 89.31 °C. The same measure for `*CCCCC(C)CCn1c(=O)c2cc3c(=O)n(*)c(=O)c3cc2c1=O` (repeat unit): 135.00 °C. The compound `*CCCCCC(=O)Oc1ccc(-c2ccc(OC(=O)c3ccc4c(c3)C(=O)N(*)C4=O)cc2)cc1` (repeat unit) returned a glass transition temperature of 118.00 °C. Next, `*CCCCCC(=O)Oc1ccc(Oc2ccc(OC(=O)CCCCCn3c(=O)c4cc5c(=O)n(*)c(=O)c5cc4c3=O)cc2)cc1` (repeat unit): 91.00 °C; `*CCCCCC(=O)S*` (repeat unit): 19.00 °C. The same measure for `*CCCCCCC(=O)NCc1ccc(CNC(=O)CCCCCCS*)cc1` (repeat unit): 65.00 °C; for `*CCCCCCC(=O)Oc1ccc(-c2ccc(OC(=O)c3ccc4c(c3)C(=O)N(*)C4=O)cc2)cc1` (repeat unit): 107.00 °C; for `*CCCCCCC(=O)Oc1ccc(OC(=O)c2ccc3c(c2)C(=O)N(*)C3=O)cc1` (repeat unit): 74.31 °C. Next, `*CCCCCCCC(=O)N*` (repeat unit): 37.00 °C; `*CCCCCCCCC(c1ccc(O)cc1)C(*)c1ccc(O)cc1C` (repeat unit): -12.00 °C; `*CCCCCCCCCCC(=O)NCCCCCC(=O)N*` (repeat unit): 25.50 °C.

`*CCCCCCCCCCC(=O)NCCc1ccc(CCNC(=O)CCCCCCCCCCS*)cc1` (repeat unit) had a glass transition temperature of 58.00 °C.

The compound `*CCCCCCCCCCC(=O)Oc1ccc(-c2ccc(OC(=O)c3ccc4c(c3)C(=O)N(*)C4=O)cc2)cc1` (repeat unit) registered a glass transition temperature of 61.00 °C. `*CCCCCCCCCCCC(=O)N(*)C` (repeat unit) had a glass transition temperature of -29.00 °C. As to `*CCCCCCCCCCCC(=O)Oc1ccc(-c2ccc(OC(=O)c3ccc4c(c3)C(=O)N(*)C4=O)cc2)cc1` (repeat unit), the glass transition temperature stood at 60.00 °C.

`*CCCCCCCCCCCC(=O)Oc1ccc(C2(c3ccc(OC(=O)c4ccc5c(c4)C(=O)N(*)C5=O)cc3)OC(=O)c3ccccc32)cc1` (repeat unit) returned a glass transition temperature of 114.00 °C. The same measure for `*CCCCCCCCCCCC(=O)Oc1ccc(OC(=O)c2ccc3c(c2)C(=O)N(*)C3=O)cc1` (repeat unit): 58.00 °C; for `*CCCCCCCCCCCCC(=O)N*` (repeat unit): 41.00 °C; for `*CCCCCCCCCCCCCCCCCCCCC(*)COCCOCCOCCOCCOCc1ccc2ccc3cccc4ccc1c2c34` (repeat unit): -21.00 °C. Next, `*CCCCCCCCCCCCCCNC(=O)CCCCCCCCCCCCCCCCC(=O)N*` (repeat unit): 48.00 °C; `*CCCCCCCCCCCCNC(=O)CCCCCCCCCCCCCCC(=O)N*` (repeat unit): 46.00 °C. Next, `*CCCCCCCCCCCCNC(=O)CCCCCCCCCCCCCCCCC(=O)N*` (repeat unit): 46.50 °C; `*CCCCCCCCCCN1C(=O)C2C3C=CC(C4C(=O)N(*)C(=O)C34)C2C1=O` (repeat unit): 219.00 °C; `*CCCCCCCCCCNC(=O)CCCCCCCCCCCCCCCCC(=O)N*` (repeat unit): 46.00 °C.

In turn, `*CCCCCCCCCCOC(=O)CCCCCCCCCCCCCCCCC(=O)O*` (repeat unit) came in with a glass transition temperature of -17.00 °C. For `*CCCCCCCCCCSSSS*` (repeat unit), the glass transition temperature was -76.00 °C.

Consider `*CCCCCCCCCC[N+](*)(C)C` (repeat unit), for which the glass transition temperature was 65.90 °C. The compound `*CCCCCCCCN(C)c1ccc(C(=O)c2ccc(N(*)C)cc2)cc1` (repeat unit) displayed a glass transition temperature of 50.00 °C. Next, `*CCCCCCCCNC(=O)CCCCCCCCCCCCCCC(=O)N*` (repeat unit): 52.00 °C; `*CCCCCCCCNC(=O)CCCCCCCCCCCCCCCCC(=O)N*` (repeat unit): 36.00 °C; `*CCCCCCCCNC(=O)CCCCCCCCCCCCCCCCCCCCC(=O)N*` (repeat unit): 48.00 °C. Next, `*CCCCCCN(C)C(=O)CCCC(=O)N(*)C` (repeat unit): 3.00 °C; `*CCCCCCN(C)c1ccc(C(=O)c2ccc(N(*)C)cc2)cc1` (repeat unit): 75.50 °C. Compound `*CCCCCCN1C(=O)C(=O)N(*)C1=O` (repeat unit) displayed a glass transition temperature of 55.00 °C.

Compound `*CCCCCCN1C(=O)C(C)C(SCCOCCSC2C(=O)N(CCCCCCN3C(=O)CC(C)(SCCOCCSC4(C)CC(=O)N(*)C4=O)C3=O)C(=O)C2C)C1=O` (repeat unit) gave a glass transition temperature of 78.00 °C. The same measure for `*CCCCCCNC(=O)CCCCCCCCCCCCCCCCC(=O)N*` (repeat unit): 47.00 °C; for `*CCCCCCc1nc2cc(NC(=O)CCCCCCCCC(=O)Nc3ccc4oc(*)nc4c3)ccc2o1` (repeat unit): 86.00 °C. In turn, `*CCCCN1C(=O)C2C3C=CC(C4C(=O)N(*)C(=O)C34)C2C1=O` (repeat unit) yielded a glass transition temperature of 211.00 °C. The same measure for `*CCCCOC(=O)CCCCCCCCC(=O)O*` (repeat unit): -57.00 °C; for `*CCOC(=O)CCCCCCCCC(=O)OCCOC(=O)c1ccc(C(=O)O*)cc1` (repeat unit): -6.50 °C; for `*CCc1ccc(CCNC(=O)CCCCCCCCCCCCCCCCC(=O)N*)cc1` (repeat unit): 75.00 °C. For `*Cc1ccc(CNC(=O)CCCCCCCCCC(=O)N*)cc1` (repeat unit), the glass transition temperature was found to be 110.00 °C. Next, `*Cc1ccc(CNC(=O)CCCCCCCCCCC(=O)N*)cc1` (repeat unit): 105.00 °C; `*Cc1ccc(CNC(=O)CCCCCCCCCCCC(=O)N*)cc1` (repeat unit): 100.00 °C; `*Cc1ccc(CNC(=O)CCCCCCCCCCCCCCCCC(=O)N*)cc1` (repeat unit): 75.00 °C. Next, `*NC1CCC(CC2CCC(NC(=O)CCCCCCCCCCCCC(*)=O)CC2)CC1` (repeat unit): 131.00 °C; `*Nc1cc(NC(=O)c2cc(NC(=O)C(C(C)CC)N3C(=O)c4ccccc4C3=O)cc(C(*)=O)c2)ccc1C` (repeat unit): 166.00 °C; `*Nc1ccc(Cc2ccc(NC(=O)c3cc(NC(=O)CCCN4C(=O)c5ccccc5C4=O)cc(C(*)=O)c3)cc2)cc1` (repeat unit): 220.00 °C. In turn, `*Nc1ccc(Cc2ccc(NC(=O)c3cc(NC(=O)CCN4C(=O)c5ccccc5C4=O)cc(C(*)=O)c3)cc2)cc1` (repeat unit) displayed a glass transition temperature of 235.00 °C. The same measure for `*Nc1ccc(Cc2ccc(NC(=O)c3cc(NC(=O)c4ccc(NC(=O)C(CC(C)C)N5C(=O)c6ccccc6C5=O)cc4)cc(C(*)=O)c3)cc2)cc1` (repeat unit): 238.00 °C.

In turn, `*Nc1ccc(NC(=O)c2cc(C(*)=O)c(C(=O)O)cc2C(=O)O)cc1` (repeat unit) gave a glass transition temperature of 283.40 °C. The same measure for `*OC(=O)CCCCCCCCC(*)=O` (repeat unit): 60.00 °C; for `*Oc1c(-c2ccccc2)cc(Cc2cc(-c3ccccc3)c(OC(=O)CCCCCCCCC(*)=O)c(-c3ccccc3)c2)cc1-c1ccccc1` (repeat unit): 92.00 °C. Next, `*Oc1ccc(C2(c3ccc(OC(=O)CCCCCCCCCC(*)=O)cc3)c3ccccc3-c3ccccc32)cc1` (repeat unit): 136.00 °C; `*Oc1ccc(NC(=O)CCCCCCCCC(=O)Nc2ccc(*)cc2)cc1` (repeat unit): 160.00 °C.

Regarding `*Oc1ccc(NC(=O)CCCCCCCCCCC(=O)Nc2ccc(*)cc2)cc1` (repeat unit), the glass transition temperature was 150.00 °C.

The compound `*Oc1ccc(OC(=O)CCCCCCCCC(*)=O)cc1` (repeat unit) displayed a glass transition temperature of 52.80 °C. `*Oc1ccc(Oc2ccc(C(=O)c3cccc(NC(=O)CCCCCCCCC(=O)Nc4cccc(C(=O)c5ccc(*)cc5)c4)c3)cc2)cc1` (repeat unit) gave a glass transition temperature of 144.00 °C.

With `*Oc1cccc(NC(=O)CCCCCCCCC(=O)Nc2ccc(*)cc2)c1` (repeat unit), the glass transition temperature turned out to be 125.00 °C. The same measure for `*c1ncnc(N(CCCCCCN(*)c2ccccc2)c2ccccc2)n1` (repeat unit): 72.00 °C.
